Data taken from the supplement of paper PMC6045584.
± gives the standard deviation of the averaged measurements.

Columns and labels:
MK-1775 = compound: C=CCn1c(=O)c2cnc(Nc3ccc(N4CCN(C)CC4)cc3)nc2n1-c1cccc(C(C)(C)O)n1 [MK-1775]; assay: surviving fraction relative to DMSO-only wells; higher = less growth inhibition; details: exposure time: 5 days
Outline: (§1)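 Lines were retained only if, across three screens, replicate Pearson r was >0.7 and median Z' was >0.3. Viability was measured as CellTiter-Glo luminescence and reported as surviving fraction relative to the median of DMSO-only wells. Readings followed 10 minutes at room temperature, after log-phase tumour cells seeded at 250–500 per well in 384-well plates had been exposed, from 24 hours after seeding, continuously for five days to inhibitors at 0.5, 1, 5, 10, 50, 100, 500 and 1000 nM.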

BLEOMYCIN = compound: Cc1c(N)nc([C@H](CC(N)=O)NC[C@H](N)C(N)=O)nc1C(=O)N[C@H](C(=O)N[C@H](C)[C@@H](O)[C@H](C)C(=O)N[C@H](C(=O)NCCc1nc(-c2nc(C(=O)NCCC[S+](C)C)cs2)cs1)[C@@H](C)O)[C@@H](OC1OC(CO)C(O)C(O)C1OC1OC(CO)C(O)C(OC(N)=O)C1O)c1cnc[nH]1 [BLEOMYCIN]; assay: as above; details: exposure time: 5 days
Outline: as §1

Row | Test System | surviving fraction (MK-1775; 0.5 nM) | surviving fraction (MK-1775; 1 nM) | surviving fraction (MK-1775; 5 nM) | surviving fraction (MK-1775; 10 nM) | surviving fraction (MK-1775; 50 nM) | surviving fraction (MK-1775; 100 nM) | surviving fraction (MK-1775; 500 nM) | surviving fraction (MK-1775; 1000 nM) | surviving fraction (BLEOMYCIN; 0.5 nM) | surviving fraction (BLEOMYCIN; 1 nM) | surviving fraction (BLEOMYCIN; 5 nM) | surviving fraction (BLEOMYCIN; 10 nM) | surviving fraction (BLEOMYCIN; 50 nM) | surviving fraction (BLEOMYCIN; 100 nM) | surviving fraction (BLEOMYCIN; 500 nM) | surviving fraction (BLEOMYCIN; 1000 nM)
1 | SG31 HEADNECK | 1.15 ± 0.19 | 1.03 ± 0.1 | 0.968 ± 0.097 | 0.977 ± 0.12 | 0.979 ± 0.14 | 0.789 ± 0.1 | 0.623 ± 0.074 | 0.649 ± 0.048 | 0.979 ± 0.12 | 0.924 ± 0.018 | 0.767 ± 0.12 | 0.805 ± 0.12 | 0.83 ± 0.046 | 0.733 ± 0.066 | 0.712 ± 0.13 | 0.595 ± 0.065
2 | SG32 HEADNECK | 1.25 ± 0.072 | 1.43 ± 0.26 | 1.13 ± 0.19 | 1.14 ± 0.2 | 0.852 ± 0.074 | 0.476 ± 0.037 | 0.22 ± 0.038 | 0.19 ± 0.0027 | 0.921 ± 0.32 | 0.967 ± 0.23 | 0.818 ± 0.069 | 0.825 ± 0.17 | 0.824 ± 0.071 | 0.698 ± 0.048 | 0.593 ± 0.094 | 0.427 ± 0.05
3 | SG43 HEADNECK | 1.22 ± 0.14 | 1.01 ± 0.11 | 1.02 ± 0.084 | 0.823 ± 0.063 | 0.906 ± 0.072 | 0.911 ± 0.06 | 0.783 ± 0.14 | 0.549 ± 0.14 | 1.13 ± 0.058 | 1.08 ± 0.13 | 1.02 ± 0.096 | 0.81 ± 0.18 | 0.583 ± 0.015 | 0.78 ± 0.087 | 0.613 ± 0.17 | 0.391 ± 0.13
4 | SIHA CERVIX | 1.08 ± 0.03 | 1.04 ± 0.054 | 1.09 ± 0.066 | 1.08 ± 0.039 | 1.17 ± 0.085 | 1.16 ± 0.057 | 0.277 ± 0.049 | 0.0987 ± 0.013 | 0.959 ± 0.083 | 0.957 ± 0.017 | 1.02 ± 0.042 | 1.02 ± 0.046 | 1.08 ± 0.071 | 1.08 ± 0.059 | 0.961 ± 0.053 | 0.967 ± 0.024
5 | SJSA1 BONE | 1 ± 0.011 | 1.0057 ± 0.00058 | 1.03 ± 0.026 | 1.04 ± 0.034 | 1.02 ± 0.033 | 0.938 ± 0.049 | 0.384 ± 0.011 | 0.317 ± 0.02 | 0.855 ± 0.056 | 0.861 ± 0.079 | 0.839 ± 0.026 | 0.773 ± 0.011 | 0.654 ± 0.029 | 0.504 ± 0.025 | 0.481 ± 0.029 | 0.44 ± 0.024
6 | SKBR3 BREAST | 1.07 ± 0.15 | 0.873 ± 0.22 | 0.975 ± 0.15 | 1.02 ± 0.15 | 0.858 ± 0.12 | 0.746 ± 0.077 | 0.308 ± 0.031 | 0.182 ± 0.0035 | 0.886 ± 0.19 | 0.721 ± 0.1 | 0.81 ± 0.16 | 0.768 ± 0.15 | 0.872 ± 0.15 | 0.889 ± 0.099 | 0.87 ± 0.11 | 0.783 ± 0.13
7 | SNU475 LIVER | 1.05 ± 0.06 | 1.04 ± 0.032 | 1.04 ± 0.024 | 0.9893 ± 0.0081 | 0.941 ± 0.035 | 0.884 ± 0.054 | 0.58 ± 0.031 | 0.345 ± 0.033 | 0.8647 ± 0.0059 | 0.859 ± 0.0092 | 0.838 ± 0.014 | 0.844 ± 0.024 | 0.8043 ± 0.0023 | 0.752 ± 0.043 | 0.53 ± 0.025 | 0.384 ± 0.0084
8 | SUM44 BREAST | 1.043 ± 0.0078 | 1.08 ± 0.034 | 1.04 ± 0.023 | 1.07 ± 0.017 | 0.979 ± 0.017 | 0.561 ± 0.014 | 0.26 ± 0.0095 | 0.254 ± 0.01 | 0.917 ± 0.045 | 0.918 ± 0.013 | 0.92 ± 0.058 | 0.93 ± 0.025 | 1.06 ± 0.037 | 0.973 ± 0.088 | 0.853 ± 0.059 | 0.824 ± 0.023
9 | SUM149 BREAST | 1.13 ± 0.077 | 1.09 ± 0.069 | 1.16 ± 0.095 | 1.12 ± 0.097 | 0.706 ± 0.025 | 0.328 ± 0.024 | 0.073 ± 0.0044 | 0.0517 ± 0.0025 | 0.779 ± 0.092 | 0.889 ± 0.09 | 0.707 ± 0.034 | 0.451 ± 0.08 | 0.273 ± 0.029 | 0.255 ± 0.069 | 0.106 ± 0.015 | 0.048 ± 0.013
10 | SUM149.B1*.S BREAST | 1.1 ± 0.035 | 1.11 ± 0.053 | 1.1 ± 0.043 | 1.13 ± 0.017 | 1.07 ± 0.025 | 0.892 ± 0.018 | 0.198 ± 0.01 | 0.144 ± 0.0048 | 0.884 ± 0.032 | 0.943 ± 0.024 | 0.928 ± 0.028 | 0.883 ± 0.042 | 0.937 ± 0.066 | 0.939 ± 0.059 | 0.55 ± 0.061 | 0.394 ± 0.096
